Experimental findings from patent publication US11986478B2 (priority 2021, dated 2024) are described below.

The subject of assay [1] is SARS-CoV-2 variants of concern B.1.1.7 (Alpha), B.1.351 (Beta) and B.1.617.2 (Delta). As to the kind of experiment: microbe, parasite or virus in culture. The assay is classed as cell-based. The conditions noted are these: Severe acute respiratory syndrome coronavirus 2, VeroE6/TMPRSS2, read-out: EC50 against SARS-CoV-2 variants of concern.
A further assay deals with SARS2-PLpro K157A mutant (Severe acute respiratory syndrome coronavirus 2, UniProt P0DTD1, K1720A). In kind it is biochemical, SARS-CoV-2.

On to `O=C(Nc1ccccc1Cl)c1sc(=S)n2c1[nH]c(=O)c1ccccc12` [Compound F0213], for which the EC50 (commonly the concentration at which the effect is half-maximal) in assay [1] fell in the range of 2.2 to 4.8 µM. The “effect of K157A substitution on inhibitory potency” value on SARS2-PLpro K157A mutant is given as “significantly diminished the inhibitory potency”.
